{"source": "patent US6525001B1", "about": "“Substituted pyrimidine and pyridine herbicides” (Mid-American Commercialization Corporation, priority 1997, dated 2003)", "experiment_in_all_cases": "Test B pre-/postemergence", "assay_type_in_all_cases": "in vivo", "parameters_in_all_cases": "key: 0 is no effect; 10 is complete control", "key": {"corn (Zea mays)": {"tested_on": "corn (Zea mays)", "summary_of_the_method": "(§1)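 Seeds were planted and sprayed preemergence, while plants at 2 to 18 cm (1- to 4-leaf stage) were sprayed postemergence at the same time, with test chemical in a non-phytotoxic solvent mixture containing surfactant. After twelve to sixteen days in a greenhouse, injury was rated visually against untreated controls on a 0–10 scale.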"}, "soybean (Glycine max)": {"tested_on": "soybean (Glycine max)", "summary_of_the_method": "as §1"}, "[1]": {"tested_on": "purple nutsedge (Cyperus rotundus)", "summary_of_the_method": "as §1"}, "wild oat (Avena fatua)": {"tested_on": "wild oat (Avena fatua)", "summary_of_the_method": "as §1"}, "[2]": {"tested_on": "momingglory (Ipomoea hederacea)", "summary_of_the_method": "as §1"}, "[3]": {"tested_on": "velvetleaf (Abutilon theophrasti)", "summary_of_the_method": "as §1"}, "[4]": {"tested_on": "sugar beet (Beta vulgaris)", "summary_of_the_method": "as §1"}, "[5]": {"tested_on": "blackgrass (Alopecurus myosuroides)", "summary_of_the_method": "as §1"}, "[6]": {"tested_on": "wheat (Triticum aestivum)", "summary_of_the_method": "as §1"}, "[7]": {"tested_on": "crabgrass (Digitaria sanguinalis)", "details": "for Plant response rating, Crabgrass: Preemergence", "summary_of_the_method": "as §1"}, "[8]": {"tested_on": "pigweed (Amaranthus retroflexus)", "summary_of_the_method": "as §1"}, "[9]": {"tested_on": "giant foxtail (Setaria faberii)", "summary_of_the_method": "as §1"}, "[10]": {"tested_on": "broadleaf signalgrass (Brachiaria decumbens)", "summary_of_the_method": "as §1"}, "[11]": {"tested_on": "cocklebur (Xanthium strumarium)", "summary_of_the_method": "as §1"}, "[12]": {"details": "Preemergence, Rate 62 g/ha, scale of 0 to 10"}}, "data": [{"smiles": "Cc1cnc(-c2ccc(C(F)(F)F)cc2)nc1C(=O)c1cccc(OC(F)(F)F)c1", "note": "[Compound 75]", "values": [{"measurement": "Plant response rating, Corn", "setting": "corn (Zea mays); [12]", "value": 0}, {"measurement": "Corn plant response rating", "setting": "corn (Zea mays); Rate 62 g/ha, Postemergence", "value": 2}, {"measurement": "Corn plant response rating", "setting": "corn (Zea mays); Rate 125 g/ha, Postemergence", "value": 3}, {"measurement": "Plant response rating, Corn", "setting": "corn (Zea mays); Rate 125 g/ha, Preemergence", "value": 0}, {"measurement": "Plant response rating, Corn", "setting": "corn (Zea mays); Rate 250 g/ha, Postemergence", "value": 3}, {"measurement": "Plant response rating, Corn", "setting": "corn (Zea mays); Rate 250 g/ha, Preemergence", "value": 1}, {"measurement": "Plant response rating, Corn", "setting": "corn (Zea mays); Rate 500 g/ha, Preemergence", "value": 2}, {"measurement": "Plant response rating, Soybean", "setting": "soybean (Glycine max); [12]", "value": 0}, {"measurement": "Soybean plant response rating", "setting": "soybean (Glycine max); Rate 62 g/ha, Postemergence", "value": 3}, {"measurement": "Soybean plant response rating", "setting": "soybean (Glycine max); Rate 125 g/ha, Postemergence", "value": 3}, {"measurement": "Plant response rating, Soybean", "setting": "soybean (Glycine max); Rate 125 g/ha, Preemergence", "value": 0}, {"measurement": "Plant response rating, Soybean", "setting": "soybean (Glycine max); Rate 250 g/ha, Postemergence", "value": 3}, {"measurement": "Plant response rating, Soybean", "setting": "soybean (Glycine max); Rate 250 g/ha, Preemergence", "value": 0}, {"measurement": "Plant response rating, Soybean", "setting": "soybean (Glycine max); Rate 500 g/ha, Preemergence", "value": 1}, {"measurement": "Plant response rating, Nutsedge", "setting": "[1]; [12]", "value": 0}, {"measurement": "Nutsedge plant response rating", "setting": "[1]; Rate 62 g/ha, Postemergence", "value": 0}, {"measurement": "Nutsedge plant response rating", "setting": "[1]; Rate 125 g/ha, Postemergence", "value": 0}, {"measurement": "Plant response rating, Nutsedge", "setting": "[1]; Rate 125 g/ha, Preemergence", "value": 0}, {"measurement": "Plant response rating, Nutsedge", "setting": "[1]; Rate 250 g/ha, Postemergence", "value": 0}, {"measurement": "Plant response rating, Nutsedge", "setting": "[1]; Rate 250 g/ha, Preemergence", "value": 0}, {"measurement": "Plant response rating, Nutsedge", "setting": "[1]; Rate 500 g/ha, Preemergence", "value": 0}, {"measurement": "Plant response rating, Wild oats", "setting": "wild oat (Avena fatua); [12]", "value": 5}, {"measurement": "Wild oats plant response rating", "setting": "wild oat (Avena fatua); Rate 62 g/ha, Postemergence", "value": 3}, {"measurement": "Wild oats plant response rating", "setting": "wild oat (Avena fatua); Rate 125 g/ha, Postemergence", "value": 3}, {"measurement": "Plant response rating, Wild oats", "setting": "wild oat (Avena fatua); Rate 125 g/ha, Preemergence", "value": 7}, {"measurement": "Plant response rating, Wild oats", "setting": "wild oat (Avena fatua); Rate 250 g/ha, Postemergence", "value": 3}, {"measurement": "Plant response rating, Wild oats", "setting": "wild oat (Avena fatua); Rate 250 g/ha, Preemergence", "value": 7}, {"measurement": "Plant response rating, Wild oats", "setting": "wild oat (Avena fatua); Rate 500 g/ha, Preemergence", "value": 9}, {"measurement": "Plant response rating, Morningglory", "setting": "[2]; [12]", "value": 6}, {"measurement": "Morningglory plant response rating", "setting": "[2]; Rate 62 g/ha, Postemergence", "value": 10}, {"measurement": "Morningglory plant response rating", "setting": "[2]; Rate 125 g/ha, Postemergence", "value": 10}, {"measurement": "Plant response rating, Morningglory", "setting": "[2]; Rate 125 g/ha, Preemergence", "value": 10}, {"measurement": "Plant response rating, Morningglory", "setting": "[2]; Rate 250 g/ha, Postemergence", "value": 10}, {"measurement": "Plant response rating, Morningglory", "setting": "[2]; Rate 250 g/ha, Preemergence", "value": 10}, {"measurement": "Plant response rating, Morningglory", "setting": "[2]; Rate 500 g/ha, Preemergence", "value": 10}, {"measurement": "Plant response rating, Velvetleaf", "setting": "[3]; [12]", "value": 2}, {"measurement": "Velvetleaf plant response rating", "setting": "[3]; Rate 62 g/ha, Postemergence", "value": 8}, {"measurement": "Velvetleaf plant response rating", "setting": "[3]; Rate 125 g/ha, Postemergence", "value": 9}, {"measurement": "Plant response rating, Velvetleaf", "setting": "[3]; Rate 125 g/ha, Preemergence", "value": 8}, {"measurement": "Plant response rating, Velvetleaf", "setting": "[3]; Rate 250 g/ha, Postemergence", "value": 9}, {"measurement": "Plant response rating, Velvetleaf", "setting": "[3]; Rate 250 g/ha, Preemergence", "value": 9}, {"measurement": "Plant response rating, Velvetleaf", "setting": "[3]; Rate 500 g/ha, Preemergence", "value": 10}, {"measurement": "Plant response rating, Sugarbeets", "setting": "[4]; [12]", "value": 9}, {"measurement": "Sugarbeets plant response rating", "setting": "[4]; Rate 62 g/ha, Postemergence", "value": 10}, {"measurement": "Sugarbeets plant response rating", "setting": "[4]; Rate 125 g/ha, Postemergence", "value": 10}, {"measurement": "Plant response rating, Sugarbeets", "setting": "[4]; Rate 125 g/ha, Preemergence", "value": 10}, {"measurement": "Plant response rating, Sugarbeets", "setting": "[4]; Rate 250 g/ha, Postemergence", "value": 10}, {"measurement": "Plant response rating, Sugarbeets", "setting": "[4]; Rate 250 g/ha, Preemergence", "value": 10}, {"measurement": "Plant response rating, Sugarbeets", "setting": "[4]; Rate 500 g/ha, Preemergence", "value": 10}, {"measurement": "Plant response rating, Blackgrass", "setting": "[5]; [12]", "value": 3}, {"measurement": "Blackgrass plant response rating", "setting": "[5]; Rate 62 g/ha, Postemergence", "value": 3}, {"measurement": "Blackgrass plant response rating", "setting": "[5]; Rate 125 g/ha, Postemergence", "value": 6}, {"measurement": "Plant response rating, Blackgrass", "setting": "[5]; Rate 125 g/ha, Preemergence", "value": 8}, {"measurement": "Plant response rating, Blackgrass", "setting": "[5]; Rate 250 g/ha, Postemergence", "value": 8}, {"measurement": "Plant response rating, Blackgrass", "setting": "[5]; Rate 250 g/ha, Preemergence", "value": 9}, {"measurement": "Plant response rating, Blackgrass", "setting": "[5]; Rate 500 g/ha, Preemergence", "value": 10}, {"measurement": "Plant response rating, Wheat", "setting": "[6]; [12]", "value": 0}, {"measurement": "Wheat plant response rating", "setting": "[6]; Rate 62 g/ha, Postemergence", "value": 2}, {"measurement": "Wheat plant response rating", "setting": "[6]; Rate 125 g/ha, Postemergence", "value": 2}, {"measurement": "Plant response rating, Wheat", "setting": "[6]; Rate 125 g/ha, Preemergence", "value": 4}, {"measurement": "Plant response rating, Wheat", "setting": "[6]; Rate 250 g/ha, Postemergence", "value": 3}, {"measurement": "Plant response rating, Wheat", "setting": "[6]; Rate 250 g/ha, Preemergence", "value": 4}, {"measurement": "Plant response rating, Wheat", "setting": "[6]; Rate 500 g/ha, Preemergence", "value": 5}, {"measurement": "Plant response rating, Crabgrass", "setting": "[7]; Rate 62 g/ha, scale of 0 to 10", "value": 6}, {"measurement": "Crabgrass plant response rating", "setting": "[7]; Rate 125 g/ha, Postemergence", "value": 4}, {"measurement": "Plant response rating, Crabgrass", "setting": "[7]; Rate 125 g/ha", "value": 9}, {"measurement": "Plant response rating, Crabgrass", "setting": "[7]; Rate 250 g/ha", "value": 9}, {"measurement": "Plant response rating, Crabgrass", "setting": "[7]; Rate 500 g/ha", "value": 10}, {"measurement": "Plant response rating, Redroot pigweed", "setting": "[8]; [12]", "value": 9}, {"measurement": "Redroot pigweed plant response rating", "setting": "[8]; Rate 62 g/ha, Postemergence", "value": 9}, {"measurement": "Redroot pigweed plant response rating", "setting": "[8]; Rate 125 g/ha, Postemergence", "value": 9}, {"measurement": "Plant response rating, Redroot pigweed", "setting": "[8]; Rate 125 g/ha, Preemergence", "value": 10}, {"measurement": "Plant response rating, Redroot pigweed", "setting": "[8]; Rate 250 g/ha, Postemergence", "value": 10}, {"measurement": "Plant response rating, Redroot pigweed", "setting": "[8]; Rate 250 g/ha, Preemergence", "value": 10}, {"measurement": "Plant response rating, Redroot pigweed", "setting": "[8]; Rate 500 g/ha, Preemergence", "value": 10}, {"measurement": "Plant response rating, Giant foxtail", "setting": "[9]; [12]", "value": 1}, {"measurement": "Giant foxtail plant response rating", "setting": "[9]; Rate 62 g/ha, Postemergence", "value": 1}, {"measurement": "Giant foxtail plant response rating", "setting": "[9]; Rate 125 g/ha, Postemergence", "value": 2}, {"measurement": "Plant response rating, Giant foxtail", "setting": "[9]; Rate 125 g/ha, Preemergence", "value": 5}, {"measurement": "Plant response rating, Giant foxtail", "setting": "[9]; Rate 250 g/ha, Postemergence", "value": 4}, {"measurement": "Plant response rating, Giant foxtail", "setting": "[9]; Rate 250 g/ha, Preemergence", "value": 5}, {"measurement": "Plant response rating, Giant foxtail", "setting": "[9]; Rate 500 g/ha, Preemergence", "value": 9}, {"measurement": "B. signalgrass plant response rating", "setting": "[10]; Rate 62 g/ha, Postemergence", "value": 2}, {"measurement": "B. signalgrass plant response rating", "setting": "[10]; Rate 62 g/ha, Preemergence", "value": 8}, {"measurement": "B. signalgrass plant response rating", "setting": "[10]; Rate 125 g/ha, Postemergence", "value": 2}, {"measurement": "Plant response rating, B. signalgrass", "setting": "[10]; Rate 125 g/ha, Preemergence", "value": 9}, {"measurement": "Plant response rating, B. signalgrass", "setting": "[10]; Rate 250 g/ha, Postemergence", "value": 3}, {"measurement": "Plant response rating, B. signalgrass", "setting": "[10]; Rate 250 g/ha, Preemergence", "value": 9}, {"measurement": "Plant response rating, B. signalgrass", "setting": "[10]; Rate 500 g/ha, Preemergence", "value": 9}, {"measurement": "Plant response rating, Cocklebur", "setting": "[11]; [12]", "value": 0}, {"measurement": "Cocklebur plant response rating", "setting": "[11]; Rate 62 g/ha, Postemergence", "value": 7}, {"measurement": "Cocklebur plant response rating", "setting": "[11]; Rate 125 g/ha, Postemergence", "value": 7}, {"measurement": "Plant response rating, Cocklebur", "setting": "[11]; Rate 125 g/ha, Preemergence", "value": 0}, {"measurement": "Plant response rating, Cocklebur", "setting": "[11]; Rate 250 g/ha, Postemergence", "value": 7}, {"measurement": "Plant response rating, Cocklebur", "setting": "[11]; Rate 250 g/ha, Preemergence", "value": 2}, {"measurement": "Plant response rating, Cocklebur", "setting": "[11]; Rate 500 g/ha, Preemergence", "value": 9}]}]}
